# Test results from ChEMBL document CHEMBL1201862, “PubChem BioAssay data set” (2004).
# The source made the active and inactive calls.
# Assays:
# [1] = Luminescence Cell-Based Dose Response HTS to Identify Inhibitors of 5'UTR Stem-Loop Driven Prion Protein mRNA Translation in H4 Neuroglioblastoma Cells. [Related pubchem assays: 1827 (Project Summary), 1813 (Primary HTS)]; assay type: functional
# [2] = alpha-synuclein stem-loop luciferase translation blockers – H4 neuroglioma cells, luminescence, confirmation (AID 1988); assay type: functional, cell-based
# [3] = target: FAD-linked sulfhydryl oxidase ALR (Homo sapiens, UniProt P55789); experiment: ALR-catalysed DTT oxidation blockers – biochemical, H2O2 detection, luminescence, cherry-pick, dose response (AID 493248)
# [4] = target: T1, Rac GTPase-activating protein 1 (Homo sapiens, UniProt Q9H0H5); experiment: blockers of MgcRacGAP-driven Rac1 GTP hydrolysis – biochemical, ADP Hunter fluorescence, primary and confirmatory, confirmation (AID 624330); assay type: functional
# T1 sequence (Q9H0H5 whole entry): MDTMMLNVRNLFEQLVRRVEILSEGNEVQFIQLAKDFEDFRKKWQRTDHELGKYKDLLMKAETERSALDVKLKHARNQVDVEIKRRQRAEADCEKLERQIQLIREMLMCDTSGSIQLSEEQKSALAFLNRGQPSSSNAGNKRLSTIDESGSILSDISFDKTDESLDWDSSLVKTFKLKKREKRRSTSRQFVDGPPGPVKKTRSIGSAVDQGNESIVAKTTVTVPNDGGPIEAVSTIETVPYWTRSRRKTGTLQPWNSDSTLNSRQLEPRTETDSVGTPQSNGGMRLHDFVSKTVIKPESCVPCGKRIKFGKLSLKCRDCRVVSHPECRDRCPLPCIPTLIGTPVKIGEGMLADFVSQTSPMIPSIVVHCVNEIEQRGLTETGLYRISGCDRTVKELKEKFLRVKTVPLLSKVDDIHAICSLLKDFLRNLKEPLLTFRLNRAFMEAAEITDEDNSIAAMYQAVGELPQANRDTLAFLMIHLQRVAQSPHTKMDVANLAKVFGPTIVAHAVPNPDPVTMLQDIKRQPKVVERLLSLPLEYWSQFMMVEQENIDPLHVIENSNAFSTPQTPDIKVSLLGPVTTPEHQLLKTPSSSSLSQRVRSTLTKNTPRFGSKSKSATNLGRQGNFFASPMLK
# [5] = luciferase reporter signal suppression in cells – H4 neuroglioma cells, luminescence, dose response (AID 1990); assay type: functional, cell-based
# [6] = target: T2, Corticotropin-releasing factor receptor 2/Corticotropin-releasing factor-binding protein (Homo sapiens, UniProt P24387+Q13324); experiment: Dose Response confirmation of uHTS hits for small molecule antagonists of the CRF-binding protein and CRF-R2 receptor complex.; assay type: functional; details: read-out: IC50_Mean
# T2 sequence (Q13324 whole entry): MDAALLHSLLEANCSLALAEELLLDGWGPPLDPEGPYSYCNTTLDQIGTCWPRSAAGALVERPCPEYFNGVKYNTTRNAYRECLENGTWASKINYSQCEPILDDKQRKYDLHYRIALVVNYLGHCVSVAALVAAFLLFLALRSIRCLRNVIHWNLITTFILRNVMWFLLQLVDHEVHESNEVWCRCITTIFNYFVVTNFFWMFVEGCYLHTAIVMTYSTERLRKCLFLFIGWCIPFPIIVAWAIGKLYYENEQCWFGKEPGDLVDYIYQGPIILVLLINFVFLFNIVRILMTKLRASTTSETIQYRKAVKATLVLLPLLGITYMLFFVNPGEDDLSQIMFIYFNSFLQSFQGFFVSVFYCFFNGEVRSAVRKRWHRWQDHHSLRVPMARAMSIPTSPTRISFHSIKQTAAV
# T2 sequence (P24387 whole entry): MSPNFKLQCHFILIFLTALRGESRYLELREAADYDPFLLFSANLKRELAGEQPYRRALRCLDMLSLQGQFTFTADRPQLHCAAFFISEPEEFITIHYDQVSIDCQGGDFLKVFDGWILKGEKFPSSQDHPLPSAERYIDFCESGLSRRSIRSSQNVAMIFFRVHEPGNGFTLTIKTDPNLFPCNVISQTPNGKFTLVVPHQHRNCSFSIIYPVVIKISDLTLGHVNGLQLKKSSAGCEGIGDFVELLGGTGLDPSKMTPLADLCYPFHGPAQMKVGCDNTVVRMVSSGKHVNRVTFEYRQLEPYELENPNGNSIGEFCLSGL
# [7] = target: T2, Corticotropin-releasing factor receptor 2/Corticotropin-releasing factor-binding protein; experiment: activators of CRF receptor 2 with binding protein – uHTS hits, confirmation (AID 602473); assay type: functional; details: read-out: EC50_Mean
# [8] = Luminescence Cell-Based Dose Retest to Confirm Inhibitors of Cancer Stem Cells. [Related pubchem assays (depositor defined):AID2717, AID2721]; assay type: functional, Homo sapiens
# [9] = target: T3, Ubiquitin-conjugating enzyme E2 N (Homo sapiens, UniProt P61088); assay type: functional;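 also: Dose-response confirmation in a TR-FRET assay detecting UBC13-driven polyubiquitin chain formation, inhibition measured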
# T3 sequence (P61088 whole entry): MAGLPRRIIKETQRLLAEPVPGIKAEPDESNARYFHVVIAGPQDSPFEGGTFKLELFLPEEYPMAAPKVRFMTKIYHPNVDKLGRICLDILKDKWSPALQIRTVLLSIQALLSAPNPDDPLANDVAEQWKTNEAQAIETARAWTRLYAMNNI
# Streptokinase A = target: T4, Streptokinase A (Streptococcus pyogenes serotype M1, UniProt P10520); experiment: viability-normalized secreted streptokinase activity reduction – plasminogen activation absorbance, OD405, dose response (AID 1914); assay type: functional, Streptococcus pyogenes M1 GAS;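 also: secreted streptokinase activity via plasminogen activation per viability signal from cell pellet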
# T4 sequence (P10520 whole entry): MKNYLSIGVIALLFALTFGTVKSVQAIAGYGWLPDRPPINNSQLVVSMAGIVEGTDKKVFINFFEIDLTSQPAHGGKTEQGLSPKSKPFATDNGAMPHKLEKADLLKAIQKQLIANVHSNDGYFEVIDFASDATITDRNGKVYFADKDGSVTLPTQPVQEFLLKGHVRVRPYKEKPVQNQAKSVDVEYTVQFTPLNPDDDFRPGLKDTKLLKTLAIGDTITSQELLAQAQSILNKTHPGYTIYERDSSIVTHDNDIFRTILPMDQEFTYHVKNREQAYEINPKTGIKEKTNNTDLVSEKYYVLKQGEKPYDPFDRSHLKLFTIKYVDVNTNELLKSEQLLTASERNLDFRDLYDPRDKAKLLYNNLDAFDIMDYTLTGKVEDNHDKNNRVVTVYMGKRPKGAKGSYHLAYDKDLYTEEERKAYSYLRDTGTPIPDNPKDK
# Streptococcus = experiment: GAS UMAA2166 growth inhibition – luminescence, BacTiterGlo, counter-screen for streptokinase expression inhibitor project, dose response (AID 1915); assay type: functional, organism-based;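 also: potency for reduction of bacterial viability or growth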
# [10] = tested on: Streptococcus sp. 'group A'; experiment: Streptococcus pyogenes SK(-)GAS viability under kanamycin – luminescence, BacTiterGlo, confirmation, counter-screen for streptokinase expression inhibitor project, dose response (AID 1900); assay type: functional, organism-based
# cells = assay type: functional
# [11] = THP-1 cell cytotoxicity, dose response, cytotoxicity control for non-replicating M. tuberculosis project (AID 489025); assay type: functional
# [12] = target: T5, RNA-binding protein pos-1 (Caenorhabditis elegans, UniProt G5EF15); experiment: disruptors of C. elegans POS-1 RNA interaction – biochemical, fluorescence polarization, dose response (AID 1964);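 also: purified POS-1 fused to maltose binding protein made in E. coli; potency of compounds blocking POS-1 binding to fluorescent RNA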
# T5 sequence (G5EF15 whole entry): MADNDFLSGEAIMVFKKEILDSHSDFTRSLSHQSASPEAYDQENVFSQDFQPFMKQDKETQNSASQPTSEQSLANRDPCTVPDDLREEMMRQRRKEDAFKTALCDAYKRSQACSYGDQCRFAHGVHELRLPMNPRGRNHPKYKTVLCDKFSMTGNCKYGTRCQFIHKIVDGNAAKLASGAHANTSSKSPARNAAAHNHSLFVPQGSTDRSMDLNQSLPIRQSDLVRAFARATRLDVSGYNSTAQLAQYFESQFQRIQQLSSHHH
# [13] = target: T6, Zinc finger protein mex-5 (Caenorhabditis elegans, UniProt Q9XUB2); experiment: potency of MEX-5 RNA-binding blockers – biochemical, C. elegans, fluorescence polarization, dose response (AID 1960)
# T6 sequence (Q9XUB2 whole entry): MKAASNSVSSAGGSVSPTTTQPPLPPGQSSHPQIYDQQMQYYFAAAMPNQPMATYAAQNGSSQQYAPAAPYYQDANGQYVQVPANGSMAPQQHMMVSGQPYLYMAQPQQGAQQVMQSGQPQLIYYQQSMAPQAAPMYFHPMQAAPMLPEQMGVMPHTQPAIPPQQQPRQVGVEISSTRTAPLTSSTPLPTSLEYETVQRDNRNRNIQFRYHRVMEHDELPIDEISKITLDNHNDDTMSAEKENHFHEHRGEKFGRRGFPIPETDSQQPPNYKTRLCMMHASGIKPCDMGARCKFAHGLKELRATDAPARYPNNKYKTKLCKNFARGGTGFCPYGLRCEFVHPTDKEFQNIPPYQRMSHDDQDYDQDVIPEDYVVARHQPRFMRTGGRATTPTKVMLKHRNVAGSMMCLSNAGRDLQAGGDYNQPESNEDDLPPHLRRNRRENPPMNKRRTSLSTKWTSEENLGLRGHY
# [14] = NIH3T3 cell viability loss – ATP luminescence, mouse fibroblasts, counter-screen, dose response (AID 2010); assay type: functional, cell-based;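 also: cells exposed to compound for about 90 hours before reading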
# [15] = fluconazole-exposed Candida albicans growth modulators – fluorescence, retest, confirmation (AID 2467); assay type: functional, cell-based
# [16] = Trypanosoma cruzi growth suppression in host cells – NIH3T3 host cells, beta-gal luminescence, confirmation (AID 2044); assay type: functional, cell-based;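 also: intracellular parasites grown in NIH/3T3 mouse fibroblasts as host cells; luminescent beta-galactosidase reporter signal from transgenic T. cruzi replicating inside host cells; inhibitors lower the luminescence signal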
# [17] = NIH-3T3 fibroblast cytotoxicity, dose response, cytotoxicity control, cell-based, fluorescence, Alamar Blue, secondary assay (AID 2327); assay type: functional;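 also: NIH-3T3 mouse fibroblasts cultured with fluconazole at 8 µg/mL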
# [18] = microbe, parasite or virus in culture; assay type: functional; details: Mycobacterium tuberculosis
# Chain of FAD-linked sulfhydryl oxidase ALR (P55789 whole entry): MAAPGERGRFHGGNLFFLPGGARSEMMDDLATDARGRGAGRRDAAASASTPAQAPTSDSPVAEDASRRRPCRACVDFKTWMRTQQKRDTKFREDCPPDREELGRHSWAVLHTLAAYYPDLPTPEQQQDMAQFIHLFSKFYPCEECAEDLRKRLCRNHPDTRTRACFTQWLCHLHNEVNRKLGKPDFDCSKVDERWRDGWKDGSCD
compound,measurement,setting,value
Cc1nc2ccc(-c3nc4cc(N)ccc4[nH]3)cc2[nH]1,EC50,[1],16.6 µM (active)
same,EC50,[2],38 µM (active)
same,AC50,[3],0.736 µM (active)
same,IC50,[4],54 µM (active)
same,EC50,[5],> 120 µM (not active)
CC1CCCN(CCCNC(=O)CN2C(=O)CSc3ccc(S(=O)(=O)N4CCOCC4)cc32)C1 (centres undefined),IC50,[6],> 47.1 µM (inactive)
same,EC50,[7],> 53 µM (inactive)
CC/C(=C(\c1ccccc1)c1ccc(OCCN(C)C)cc1)c1ccccc1 [TAMOXIFEN],AC50,[8],5.52 µM (active)
same,IC50,[9],> 20 µM (inactive)
same,EC50,Streptokinase A,> 150 µM (not active)
same,EC50,Streptococcus,21.8 µM (active)
same,EC50,[10],6.5 µM (active)
COc1cccc(C(=O)N2CCCC(Nc3ccc(C)c(C)c3)C2)c1 (centres undefined),AC50,[3],7.17 µM (active)
Oc1cnnc(Nc2ccc(Nc3ccccc3)cc2)n1,AC50,[3],0.323 µM (active)
CC(C)(C)Nc1nc(NC(C)(C)C)nc(-n2ccnc2)n1,IC50,cells,22.9 µM (active)
same,CC50,[11],> 40 µM (active)
CN(C)c1ccc(C(=S)N2CCNCC2)cc1,AC50,[3],2.18 µM (active)
C#CCOCCOCCOCCNc1nc(N2CCN(C(=O)[C@H]([C@@H](C)CC)n3cc(CCCN=C(N)N)nn3)CC2)nc(N2CCN(C(=O)[C@H](CCCCN)n3cc(CCCC)nn3)CC2)n1,IC50,[9],> 20 µM (inactive)
O=C1/C(=C/c2cccc([N+](=O)[O-])c2)CSc2ccc(Cl)cc21,IC50,[9],> 20 µM (inactive)
CC1CCN(c2nc3ccccc3nc2C(C#N)C(=O)NC2CCCCC2)CC1 (centres undefined),EC50,[12],> 300 µM (not active)
same,EC50,Streptokinase A,26.2 µM (active)
same,EC50,Streptococcus,18.3 µM (active)
same,EC50,[10]; read-out: EC50,7.52 µM (active)
same,EC50,[13],> 300 µM (not active)
COc1cc(Cl)c(C)cc1NC(=O)CSc1ccc(C)cc1,IC50,[6],> 47.1 µM (inactive)
same,EC50,[7],> 53 µM (inactive)
CC(=O)c1ccc(-[n+]2cc(-c3ccc(C(C)(C)C)cc3)n3c2SCCC3)cc1,IC50,cells,20.9 µM (active)
same,EC50,[14],> 60 µM (not active)
same,EC50,[15],2.03 µM (active)
same,EC50,[16],0.443 µM (active)
same,EC50,[17],> 150 µM (inactive)
same,CC50,[11],11.4 µM (active)
same,CC50,[18],> 40 µM (active)
COc1cc(C(=O)NCC(c2ccco2)N2CCc3ccccc32)cc(OC)c1OC (centres undefined),AC50,[3],5.5 µM (active)
N#Cc1nc(-c2ccc(OCc3ccccc3)cc2)oc1NCCCn1ccnc1,IC50,cells,46.5 µM (active)
same,CC50,[11],24.7 µM (active)
same,CC50,[18],> 40 µM (active)
CC(NC(=O)COC(=O)C1(C)CC1(Cl)Cl)c1ccccc1 (centres undefined),IC50,[6],> 47.1 µM (inactive)
same,EC50,[7],> 53 µM (inactive)
NNC(=O)CCc1nc2ccc(O)cc2[nH]1,AC50,[3],3.82 µM (active)
O=C(C[n+]1nc(CNc2ccc(Br)cc2)n2c1CCCCC2)c1ccc([N+](=O)[O-])cc1,IC50,[9],> 20 µM (inactive)
C=CCNC(S)=NNC(=O)c1ccc(OCC)cc1,IC50,[6],> 47.1 µM (inactive)
same,EC50,[7],> 53 µM (inactive)
CCc1nnc(N=C(S)Nc2ccccc2)s1,IC50,[6],> 47.1 µM (inactive)
same,EC50,[7],> 53 µM (inactive)
CC12CCC(C(=O)N/N=C/c3ccc(O)cc3)(OC1=O)C2(C)C (centres undefined),AC50,[3],0.099 µM (active)
COc1ccc(OCC(=O)NNC(=S)NC(=O)c2ccc([N+](=O)[O-])cc2)cc1,IC50,[9],> 20 µM (inactive)
Cc1ccc(-n2c(Cl)c(Cl)[nH]c(=O)c2=O)cc1,IC50,[6],> 47.1 µM (inactive)
same,EC50,[7],> 53 µM (inactive)
